Measurements as given in publication PMC2744016, “Adenosine Triphosphate Stimulates Aquifex aeolicus MutL Endonuclease Activity” (PLoS ONE, 2009).

How the values were obtained:
Aae MutL [1] = target: T1, Aae MutL (Aquifex aeolicus, UniProt O67518); experiment: filter-binding assay with 3H nucleotide; settings: labelled compound; no DNA, ssDNA or dsDNA M13mp18; 10 mM MgCl2, 50 mM NaCl, pH 7.9, room temperature
T1 construct: full-length (C-terminal domain residues 303-425), expressed in E. coli Rosetta (DE3) from pTWIN1 as Mxe GyrA intein fusion, intein tag cleaved off
T1 sequence (O67518 1-425): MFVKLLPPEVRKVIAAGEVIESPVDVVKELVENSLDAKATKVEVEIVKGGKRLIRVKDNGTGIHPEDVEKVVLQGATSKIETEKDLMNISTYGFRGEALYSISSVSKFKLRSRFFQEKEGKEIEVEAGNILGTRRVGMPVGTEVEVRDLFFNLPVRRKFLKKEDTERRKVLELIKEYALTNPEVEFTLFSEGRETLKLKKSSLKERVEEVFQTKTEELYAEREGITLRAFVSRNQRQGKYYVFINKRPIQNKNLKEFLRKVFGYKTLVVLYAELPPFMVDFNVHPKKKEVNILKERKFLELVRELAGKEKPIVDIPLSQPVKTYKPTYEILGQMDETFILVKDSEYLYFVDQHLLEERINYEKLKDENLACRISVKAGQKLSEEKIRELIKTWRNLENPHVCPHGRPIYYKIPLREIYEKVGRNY

Aae MutL [2] = target: T1, Aae MutL; experiment: initial rate of supercoiled pBR322 nicking, agarose gel; assay type: biochemical; settings: 1 mM AMPPNP, 1 mM MnSO4, pH 7.6, 37 °C; activator

| SMILES | filter-binding assay with 3H nucleotide (Aae MutL [1]) | initial rate of supercoiled pBR322 nicking, agarose gel (Aae MutL [2]) |
| --- | --- | --- |
| Nc1ncnc2c1ncn2[C@@H]1O[C@H](COP(=O)(O)OP(=O)(O)O)[C@@H](O)[C@H]1O [ADP] | in the presence of ssDNA MutL binds both ATP and ADP with about equal affinity |  |
| Nc1ncnc2c1ncn2[C@@H]1O[C@H](COP(=O)(O)OP(=O)(O)NP(=O)(O)O)[C@@H](O)[C@H]1O [AMPPNP] |  | AMPPNP stimulated Aae MutL nicking activity to the same extent as observed with ATP |
| Nc1ncnc2c1ncn2[C@@H]1O[C@H](COP(=O)(O)OP(=O)(O)OP(=O)(O)O)[C@@H](O)[C@H]1O [ATP] | in the presence of ssDNA MutL binds both ATP and ADP with about equal affinity |  |
